In paper PMC6795141 (RNA, 2019):

Assays:
[1] = target: T1, PaTrmD (tRNA (m^1G37) methyltransferase TrmD, PA14_15990) (Pseudomonas aeruginosa, UniProt Q02RL6); assay: crystal structures; format: biochemical
T1 sequence (Q02RL6 5-250): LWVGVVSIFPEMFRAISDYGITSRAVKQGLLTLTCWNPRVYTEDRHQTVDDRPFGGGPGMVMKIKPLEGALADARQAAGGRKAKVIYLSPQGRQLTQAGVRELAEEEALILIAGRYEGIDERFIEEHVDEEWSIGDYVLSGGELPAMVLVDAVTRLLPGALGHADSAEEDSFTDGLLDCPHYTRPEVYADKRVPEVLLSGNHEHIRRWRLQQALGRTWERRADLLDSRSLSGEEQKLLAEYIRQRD

[2] = target: T1, PaTrmD (tRNA (m^1G37) methyltransferase TrmD, PA14_15990); assay: ITC with refolded PaTrmD; format: binding
PaTrmD (refolded) = target: T2, PaTrmD (refolded) (Pseudomonas aeruginosa PA14, UniProt Q02RL6 5-250); assay: ITC
T2 sequence: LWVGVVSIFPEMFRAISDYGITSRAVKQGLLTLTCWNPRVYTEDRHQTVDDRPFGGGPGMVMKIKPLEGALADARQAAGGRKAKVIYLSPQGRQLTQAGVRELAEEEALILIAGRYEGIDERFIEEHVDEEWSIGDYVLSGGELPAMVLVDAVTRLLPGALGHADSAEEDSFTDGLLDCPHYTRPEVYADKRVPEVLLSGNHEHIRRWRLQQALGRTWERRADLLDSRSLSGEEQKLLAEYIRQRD

## Nc1ncnc2c1ncn2[C@@H]1O[C@H](C[C@@H](N)CC[C@H](N)C(=O)O)[C@@H](O)[C@H]1O [SFG, sinefungin]
[1]
  Ki: 410 ± 70 nM

## C[S+](CC[C@H](N)C(=O)[O-])C[C@H]1O[C@@H](n2cnc3c(N)ncnc32)[C@H](O)[C@@H]1O (stereo partly drawn) [SAM, S-adenosyl-L-methionine]
[2]
  Kd: 14.4 ± 3.1 µM

B1: tRNALeu(GAG) (structured_RNA)
RNA: GGGGCCGAGGUGGUGGAAUUGGUAGACACGCUACCUUGAGGUGGUAGUGGCCAUAGGCUGUAGGGGUUCGAGUCCCCUCCUCGGUACCA
modifications: none (unmodified transcript)
PaTrmD (refolded)
  Kd: 13.6 ± 3 µM
